# According to PMC11249646, “Small-Molecule Disruptors of the Interaction between Calcium- and Integrin-Binding Protein 1 and Integrin αIIbβ3 as Novel Antiplatelet Agents” (ACS Pharmacology & Translational Science, 2024):
# Target: T1, GST-CIB1 : F-scrambled peptide (Homo sapiens, UniProt Q99828)
# T1 construct: made in house; host or cells: BL-21 plus RIL cells (E. coli)
# T1 sequence (Q99828 1-191): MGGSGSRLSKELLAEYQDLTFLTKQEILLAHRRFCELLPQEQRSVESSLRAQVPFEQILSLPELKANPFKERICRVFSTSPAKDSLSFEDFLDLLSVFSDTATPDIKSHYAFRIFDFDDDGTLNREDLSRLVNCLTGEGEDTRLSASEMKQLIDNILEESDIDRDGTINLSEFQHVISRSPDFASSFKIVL
# Assay: FP scrambled-peptide counter screen, 384-well format
# Type: binding
# Conditions: F-scrambled peptide
row,SMILES,384-well COUNTERSCREEN Efficacy (%)
1,CCOC(=O)c1c(NC(=O)C2CC(Cl)=CCC2C(=O)O)sc2c1CCCCC2.O=C(O)C(F)(F)F (centres unmarked) [NCGC00238648-01],12
2,COC(=O)c1ccc2c(c1)S(=O)(=O)N=C2Sc1cc(C)ccc1C [NCGC00238687-01],45
3,CCOC(=O)c1ccc(O)c2ncc(-c3ccc(C(=N)N)cc3)cc12.O=C(O)C(F)(F)F [NCGC00241050-01],77
4,Cc1cc(Nc2c(Nc3nnc(-c4ccncc4)s3)c(=O)c2=O)ccc1Cl.O=C(O)C(F)(F)F [NCGC00241510-01],64

# Same assay, conditions: F-scrambled peptide; *: Curve in opposite direction
row,SMILES,384-well COUNTERSCREEN Confirm?
1,COC(=O)c1ccc2c(c1)S(=O)(=O)N=C2Sc1cc(C)ccc1C [NCGC00238687-01],YES
2,CCOC(=O)c1ccc(O)c2ncc(-c3ccc(C(=N)N)cc3)cc12.O=C(O)C(F)(F)F [NCGC00241050-01],Inconclusive

# Same assay, conditions: F-scrambled peptide; read-out: 384-well COUNTERSCREEN IC50
row,SMILES,IC50 [µM]
1,CCOC(=O)c1c(NC(=O)C2CC(Cl)=CCC2C(=O)O)sc2c1CCCCC2.O=C(O)C(F)(F)F (centres unmarked) [NCGC00238648-01],> 120
2,COC(=O)c1ccc2c(c1)S(=O)(=O)N=C2Sc1cc(C)ccc1C [NCGC00238687-01],> 120
3,Cc1cc(Nc2c(Nc3nnc(-c4ccncc4)s3)c(=O)c2=O)ccc1Cl.O=C(O)C(F)(F)F [NCGC00241510-01],> 120

# Target: T2, CIB1 and αIIb interaction (CIB1-GST : F-αIIb peptide) (Homo sapiens, UniProt Q99828)
# T2 construct: made in house; host or cells: BL-21 plus RIL cells (E. coli)
# T2 sequence (Q99828 1-191): T1 sequence (Q99828 1-191)
# Assay: FP assay, 1536-well qHTS format (primary and confirmatory screen)
# Type: binding
# Conditions: confirmatory screen, YES/NO call
row,SMILES,CONFIRMATORY SCREEN Confirm?
1,CCOC(=O)c1c(NC(=O)C2CC(Cl)=CCC2C(=O)O)sc2c1CCCCC2.O=C(O)C(F)(F)F (centres unmarked) [NCGC00238648-01],YES
2,COC(=O)c1ccc2c(c1)S(=O)(=O)N=C2Sc1cc(C)ccc1C [NCGC00238687-01],YES
3,CCOC(=O)c1ccc(O)c2ncc(-c3ccc(C(=N)N)cc3)cc12.O=C(O)C(F)(F)F [NCGC00241050-01],YES
4,Cc1cc(Nc2c(Nc3nnc(-c4ccncc4)s3)c(=O)c2=O)ccc1Cl.O=C(O)C(F)(F)F [NCGC00241510-01],YES

# Same assay, conditions: confirmatory screen, qHTS curve class; negative sign = inhibitory curve
row,SMILES,CONFIRMATORY SCREEN Curve Class
1,CCOC(=O)c1c(NC(=O)C2CC(Cl)=CCC2C(=O)O)sc2c1CCCCC2.O=C(O)C(F)(F)F (centres unmarked) [NCGC00238648-01],-2.2
2,COC(=O)c1ccc2c(c1)S(=O)(=O)N=C2Sc1cc(C)ccc1C [NCGC00238687-01],-1.2
3,CCOC(=O)c1ccc(O)c2ncc(-c3ccc(C(=N)N)cc3)cc12.O=C(O)C(F)(F)F [NCGC00241050-01],-2.2
4,Cc1cc(Nc2c(Nc3nnc(-c4ccncc4)s3)c(=O)c2=O)ccc1Cl.O=C(O)C(F)(F)F [NCGC00241510-01],-1.4

# Same assay, conditions: confirmatory screen; negative = inhibition
row,SMILES,CONFIRMATORY SCREEN Efficacy (%)
1,CCOC(=O)c1c(NC(=O)C2CC(Cl)=CCC2C(=O)O)sc2c1CCCCC2.O=C(O)C(F)(F)F (centres unmarked) [NCGC00238648-01],-59
2,COC(=O)c1ccc2c(c1)S(=O)(=O)N=C2Sc1cc(C)ccc1C [NCGC00238687-01],-59
3,CCOC(=O)c1ccc(O)c2ncc(-c3ccc(C(=N)N)cc3)cc12.O=C(O)C(F)(F)F [NCGC00241050-01],-52
4,Cc1cc(Nc2c(Nc3nnc(-c4ccncc4)s3)c(=O)c2=O)ccc1Cl.O=C(O)C(F)(F)F [NCGC00241510-01],-51

# Same assay, conditions: confirmatory screen; read-out: CONFIRMATORY SCREEN IC50
row,SMILES,IC50 [µM]
1,COC(=O)c1ccc2c(c1)S(=O)(=O)N=C2Sc1cc(C)ccc1C [NCGC00238687-01],28.2
2,Cc1cc(Nc2c(Nc3nnc(-c4ccncc4)s3)c(=O)c2=O)ccc1Cl.O=C(O)C(F)(F)F [NCGC00241510-01],11.2

# Same assay, conditions: qHTS FP screen hits, Table S2; negative = inhibition
row,SMILES,Efficacy (%)
1,CCOC(=O)c1c(NC(=O)C2CC(Cl)=CCC2C(=O)O)sc2c1CCCCC2.O=C(O)C(F)(F)F (centres unmarked) [NCGC00238648-01],-22
2,CCOC(=O)c1ccc(O)c2ncc(-c3ccc(C(=N)N)cc3)cc12.O=C(O)C(F)(F)F [NCGC00241050-01],-77

# Same assay, conditions: qHTS FP screen hits, Table S2; read-out: IC50
row,SMILES,IC50 [µM]
1,CCOC(=O)c1c(NC(=O)C2CC(Cl)=CCC2C(=O)O)sc2c1CCCCC2.O=C(O)C(F)(F)F (centres unmarked) [NCGC00238648-01],35.5
2,CCOC(=O)c1ccc(O)c2ncc(-c3ccc(C(=N)N)cc3)cc12.O=C(O)C(F)(F)F [NCGC00241050-01],44.7

# Same assay, conditions: qHTS primary screen hits, Table S2; negative = inhibition
row,SMILES,Efficacy (%)
1,COC(=O)c1ccc2c(c1)S(=O)(=O)N=C2Sc1cc(C)ccc1C [NCGC00238687-01],-49
2,Cc1cc(Nc2c(Nc3nnc(-c4ccncc4)s3)c(=O)c2=O)ccc1Cl.O=C(O)C(F)(F)F [NCGC00241510-01],-35

# Same assay, conditions: qHTS primary screen hits, Table S2; negative sign = inhibitory curve
row,SMILES,Curve Class
1,Cc1cc(Nc2c(Nc3nnc(-c4ccncc4)s3)c(=O)c2=O)ccc1Cl.O=C(O)C(F)(F)F [NCGC00241510-01],-2.4

# Same assay, conditions: qHTS primary screen hits, Table S2; negative sign = inhibitory curve; several classes where COUNT > 1
row,Curve Class,SMILES
1,-2.2,COC(=O)c1ccc2c(c1)S(=O)(=O)N=C2Sc1cc(C)ccc1C [NCGC00238687-01]

# Same assay, conditions: qHTS primary screen hits, Table S2; read-out: IC50
row,SMILES,IC50 [µM]
1,COC(=O)c1ccc2c(c1)S(=O)(=O)N=C2Sc1cc(C)ccc1C [NCGC00238687-01],39.8
2,Cc1cc(Nc2c(Nc3nnc(-c4ccncc4)s3)c(=O)c2=O)ccc1Cl.O=C(O)C(F)(F)F [NCGC00241510-01],39.8

# Target: T3, CIB1 and αIIb interaction (GST-CIB1 : F-αIIb peptide) (Homo sapiens, UniProt Q99828)
# T3 construct: made in house; host or cells: BL-21 plus RIL cells (E. coli)
# T3 sequence (Q99828 1-191): T1 sequence (Q99828 1-191)
# Assay: FP assay, 384-well format (screen)
# Type: binding
# Set-up: 384-well SCREEN Efficacy (%): concentration or dose not given beside the values
# Conditions: F-αIIb peptide
row,SMILES,384-well SCREEN Efficacy (%)
1,CCOC(=O)c1c(NC(=O)C2CC(Cl)=CCC2C(=O)O)sc2c1CCCCC2.O=C(O)C(F)(F)F (centres unmarked) [NCGC00238648-01],15
2,COC(=O)c1ccc2c(c1)S(=O)(=O)N=C2Sc1cc(C)ccc1C [NCGC00238687-01],65
3,CCOC(=O)c1ccc(O)c2ncc(-c3ccc(C(=N)N)cc3)cc12.O=C(O)C(F)(F)F [NCGC00241050-01],87
4,Cc1cc(Nc2c(Nc3nnc(-c4ccncc4)s3)c(=O)c2=O)ccc1Cl.O=C(O)C(F)(F)F [NCGC00241510-01],23

# Same assay, conditions: F-αIIb peptide; YES/NO
row,SMILES,384-well SCREEN Confirm?
1,COC(=O)c1ccc2c(c1)S(=O)(=O)N=C2Sc1cc(C)ccc1C [NCGC00238687-01],YES
2,CCOC(=O)c1ccc(O)c2ncc(-c3ccc(C(=N)N)cc3)cc12.O=C(O)C(F)(F)F [NCGC00241050-01],YES

# Same assay, conditions: F-αIIb peptide; read-out: 384-well SCREEN IC50
row,SMILES,IC50 [µM]
1,CCOC(=O)c1c(NC(=O)C2CC(Cl)=CCC2C(=O)O)sc2c1CCCCC2.O=C(O)C(F)(F)F (centres unmarked) [NCGC00238648-01],> 120
2,COC(=O)c1ccc2c(c1)S(=O)(=O)N=C2Sc1cc(C)ccc1C [NCGC00238687-01],11.2
3,CCOC(=O)c1ccc(O)c2ncc(-c3ccc(C(=N)N)cc3)cc12.O=C(O)C(F)(F)F [NCGC00241050-01],20
4,Cc1cc(Nc2c(Nc3nnc(-c4ccncc4)s3)c(=O)c2=O)ccc1Cl.O=C(O)C(F)(F)F [NCGC00241510-01],> 120

# Target: T1, GST-CIB1 : F-scrambled peptide
# Assay: FP scrambled-peptide counter screen, 1536-well format
# Type: binding
# Conditions: scrambled-peptide counterscreen
row,SMILES,COUNTERSCREEN Efficacy (%)
1,CCOC(=O)c1c(NC(=O)C2CC(Cl)=CCC2C(=O)O)sc2c1CCCCC2.O=C(O)C(F)(F)F (centres unmarked) [NCGC00238648-01],16
2,COC(=O)c1ccc2c(c1)S(=O)(=O)N=C2Sc1cc(C)ccc1C [NCGC00238687-01],-10
3,CCOC(=O)c1ccc(O)c2ncc(-c3ccc(C(=N)N)cc3)cc12.O=C(O)C(F)(F)F [NCGC00241050-01],-18
4,Cc1cc(Nc2c(Nc3nnc(-c4ccncc4)s3)c(=O)c2=O)ccc1Cl.O=C(O)C(F)(F)F [NCGC00241510-01],-33

# Same assay, conditions: scrambled-peptide counterscreen, YES/NO call
row,SMILES,COUNTERSCREEN Confirm?
1,CCOC(=O)c1c(NC(=O)C2CC(Cl)=CCC2C(=O)O)sc2c1CCCCC2.O=C(O)C(F)(F)F (centres unmarked) [NCGC00238648-01],YES
2,COC(=O)c1ccc2c(c1)S(=O)(=O)N=C2Sc1cc(C)ccc1C [NCGC00238687-01],YES
3,CCOC(=O)c1ccc(O)c2ncc(-c3ccc(C(=N)N)cc3)cc12.O=C(O)C(F)(F)F [NCGC00241050-01],YES
4,Cc1cc(Nc2c(Nc3nnc(-c4ccncc4)s3)c(=O)c2=O)ccc1Cl.O=C(O)C(F)(F)F [NCGC00241510-01],YES

# Same assay, conditions: scrambled-peptide counterscreen, qHTS curve class
row,SMILES,COUNTERSCREEN Curve Class
1,CCOC(=O)c1c(NC(=O)C2CC(Cl)=CCC2C(=O)O)sc2c1CCCCC2.O=C(O)C(F)(F)F (centres unmarked) [NCGC00238648-01],4
2,COC(=O)c1ccc2c(c1)S(=O)(=O)N=C2Sc1cc(C)ccc1C [NCGC00238687-01],4
3,CCOC(=O)c1ccc(O)c2ncc(-c3ccc(C(=N)N)cc3)cc12.O=C(O)C(F)(F)F [NCGC00241050-01],4
4,Cc1cc(Nc2c(Nc3nnc(-c4ccncc4)s3)c(=O)c2=O)ccc1Cl.O=C(O)C(F)(F)F [NCGC00241510-01],-2.2

# Same assay, conditions: scrambled-peptide counterscreen; read-out: COUNTERSCREEN IC50
row,SMILES,IC50 [µM]
1,Cc1cc(Nc2c(Nc3nnc(-c4ccncc4)s3)c(=O)c2=O)ccc1Cl.O=C(O)C(F)(F)F [NCGC00241510-01],44.7
